{"source": "the PolyMetriX glass transition set", "note": "± gives the standard deviation of the reports."}
{"units": {"glass transition temperature": "°C"}}
{"smiles": "*OP(=O)(Oc1ccc(Cl)cc1)Oc1ccc(C(C)(C)c2ccc(*)cc2)cc1", "note": "(repeat unit)", "glass transition temperature": 71.00}
{"smiles": "*Oc1c(F)c(F)c(S(=O)(=O)c2c(F)c(F)c(Oc3ccc(C(c4ccc(*)cc4)(C(F)(F)F)C(F)(F)F)cc3)c(F)c2F)c(F)c1F", "note": "(repeat unit)", "glass transition temperature": 182.00}
{"smiles": "*CCCCCCCCCCC(=O)NCCc1ccc(CCNC(=O)CCCCCCCCCCS*)cc1", "note": "(repeat unit)", "glass transition temperature": 58.00}
{"smiles": "*c1ccc(C(=O)c2ccc(-n3nc(-c4ccc(Sc5ccc(-c6nn(*)c(=O)c7ccccc67)cc5)cc4)c4ccccc4c3=O)cc2)cc1", "note": "(repeat unit)", "glass transition temperature": 281.00}
{"smiles": "*c1ccc(Oc2ccc(C(c3ccccc3)(c3ccccc3)c3ccc(Oc4ccc(-c5nc(*)nc(-c6ccccc6)n5)cc4)cc3)cc2)cc1", "note": "(repeat unit)", "glass transition temperature": 261.00}
{"smiles": "*CCCCCCC(=O)Oc1ccc(-c2ccc(OC(=O)c3ccc4c(c3)C(=O)N(*)C4=O)cc2)cc1", "note": "(repeat unit)", "glass transition temperature": 107.00}
{"smiles": "*C(=O)Nc1ccc(Oc2ccc(-c3ccc(Oc4ccc(NC(=O)c5ccc6c(c5)C(=O)N(c5ccc(Oc7ccc(C(C)(C)c8ccc(Oc9ccc(N%10C(=O)c%11ccc(*)cc%11C%10=O)cc9)cc8)cc7)cc5)C6=O)cc4)cc3)cc2)cc1", "note": "(repeat unit)", "glass transition temperature": 283.00}
{"smiles": "*NC(CCC(=O)OCc1ccc([N+](=O)[O-])cc1)C(*)=O", "note": "(repeat unit)", "glass transition temperature": 53.2}
{"smiles": "*Cc1ccc(CNC(=O)CCCCCCCCCC(=O)N*)cc1", "note": "(repeat unit)", "glass transition temperature": 110.00}
{"smiles": "*/C(C#N)=C/c1cc(/C=C(\\C#N)c2ccc3c(c2)C(CCCCCCCC)(CCCCCCCC)c2cc(*)ccc2-3)cc(N(c2ccccc2)c2ccccc2)c1", "note": "(repeat unit)", "glass transition temperature": 136.00}
{"smiles": "*CC(*)(C)C(=O)OCc1ccsc1", "note": "(repeat unit)", "glass transition temperature": 83.50}
{"smiles": "*Oc1ccc(C(C)(C)c2ccc(OC(=O)SCCCCCCSC(*)=O)cc2)cc1", "note": "(repeat unit)", "glass transition temperature": 58.00}
{"smiles": "*CCC(Cl)C(*)Cl", "note": "(repeat unit)", "glass transition temperature": 70.00}
{"smiles": "*CCCCCCCCCCCC(=O)Oc1ccc(C2(c3ccc(OC(=O)c4ccc5c(c4)C(=O)N(*)C5=O)cc3)OC(=O)c3ccccc32)cc1", "note": "(repeat unit)", "glass transition temperature": 114.00}
{"smiles": "*CCOCCOC(=O)CCCCCC(=O)O*", "note": "(repeat unit)", "glass transition temperature": -41.50}
{"smiles": "*CC(*)c1ccncc1", "note": "(repeat unit) [Poly(p-vinyl pyridine) ]", "glass transition temperature": "142 ± 5.4"}
{"smiles": "*CC1CCC(CNC(=O)c2cc(C(=O)N*)cc(C(C)(C)C)c2)CC1", "note": "(repeat unit)", "glass transition temperature": 236.00}
{"smiles": "*CC(*)C(=O)OCC(F)(F)C(F)(F)OC(F)(F)C(F)(F)F", "note": "(repeat unit)", "glass transition temperature": -49.00}
{"smiles": "*Oc1ccc(S(=O)(=O)c2ccc(Oc3ccc(/C=C4\\CCCC/C(=C\\c5ccc(*)cc5)C4=O)cc3)cc2)cc1", "note": "(repeat unit)", "glass transition temperature": 186.00}
{"smiles": "*Oc1ccc(Sc2ccc(Oc3ccc(-c4ccc(-c5ccc(*)c(C(F)(F)F)c5)cc4)cc3C(F)(F)F)cc2)cc1", "note": "(repeat unit)", "glass transition temperature": 164.50}
{"smiles": "*OC(=O)OCC(OC)C(COC(=O)OC1COC2C(*)COC12)OC", "note": "(repeat unit)", "glass transition temperature": 61.00}
{"smiles": "*Oc1ccc(Sc2ccc(OC3(F)C(*)(F)C(F)(F)C3(F)F)cc2)cc1", "note": "(repeat unit)", "glass transition temperature": 78.00}
{"smiles": "*COc1ccc(C(C)(C)c2ccc(Oc3ccc(*)n3-c3ccc([N+](=O)[O-])cc3)cc2)cc1", "note": "(repeat unit)", "glass transition temperature": 76.8}
{"smiles": "*/C=C/c1ccc(N(C)CCOC(=O)Nc2ccc(C)c(NC(=O)OCCN(C)c3ccc(/C=C/C4=CC(=C(C#N)C#N)C=C(*)O4)s3)c2)s1", "note": "(repeat unit)", "glass transition temperature": 183.00}
{"smiles": "*CC(*)C(C)C", "note": "(repeat unit) [Poly(isopropylethylene)]", "glass transition temperature": "49 ± 18"}
{"smiles": "*c1ccc(C(c2ccc(N3C(=O)c4cc5c(cc4C3=O)C(C(F)(F)F)(C(F)(F)F)c3cc4c(cc3O5)C(=O)N(*)C4=O)cc2)(C(F)(F)F)C(F)(F)F)cc1", "note": "(repeat unit)", "glass transition temperature": 430.00}
{"smiles": "*CC(*)(C)C(=O)Oc1ccc(C(=O)Oc2ccc(-c3ccccc3)cc2)cc1", "note": "(repeat unit)", "glass transition temperature": 100.00}
{"smiles": "*Oc1ccc(OC(=O)c2ccc(OCCCCCCCCOc3ccc(C(*)=O)cc3)cc2)cc1C(=O)CC", "note": "(repeat unit)", "glass transition temperature": 70.00}
{"smiles": "*Oc1cccc(NC(=O)c2ccc(C(=O)Nc3ccc(Oc4ccc(C(=O)c5ccc(*)cc5)cc4)cc3)cc2)c1", "note": "(repeat unit)", "glass transition temperature": 126.00}
{"smiles": "*Cc1ccc(C(C)c2ccc(CN3C(=O)c4ccc(Oc5ccc6c(c5)C(=O)N(*)C6=O)cc4C3=O)o2)o1", "note": "(repeat unit)", "glass transition temperature": 129.00}
{"smiles": "*c1ccc(Sc2ccc(-c3nc4ccc(-c5ccc6nc(*)c(-c7ccccc7)nc6c5)cc4nc3-c3ccccc3)cc2)cc1", "note": "(repeat unit)", "glass transition temperature": 288.00}
{"smiles": "*Oc1ccc(CC2(Cc3ccc(*)cc3)c3ccccc3-c3ccccc32)cc1", "note": "(repeat unit)", "glass transition temperature": 138.00}
{"smiles": "*CC(*)N1CCCC1=O", "note": "(repeat unit) [Poly(N-vinyl pyrrolidone)]", "glass transition temperature": "145 ± 7.9"}
{"smiles": "*C(=O)Nc1ccc(Oc2ccc(C3(c4ccc(Oc5ccc(NC(=O)c6ccc7c(c6)C(=O)N(c6ccc(Oc8cccc(Oc9ccc(N%10C(=O)c%11ccc(*)cc%11C%10=O)cc9)c8)cc6)C7=O)cc5)cc4)NC(=O)c4ccccc43)cc2)cc1", "note": "(repeat unit)", "glass transition temperature": 267.00}
{"smiles": "*CCCCCCN1C(=O)c2ccc(C(=O)Nc3ccc(S(=O)(=O)c4cccc(NC(=O)c5ccc6c(c5)C(=O)N(*)C6=O)c4)cc3)cc2C1=O", "note": "(repeat unit)", "glass transition temperature": 190.00}
{"smiles": "*C1C(=O)N(c2ccc(O[Si](c3ccccc3)(c3ccccc3)c3ccccc3)cc2)C(=O)C1*", "note": "(repeat unit)", "glass transition temperature": 183.00}
{"smiles": "*Oc1ccc(OC(=O)c2ccc(C(*)=O)cc2Oc2ccc(C3CCCCC3)cc2)cc1", "note": "(repeat unit)", "glass transition temperature": 113.00}
{"smiles": "*/C=C/C1CC(*)C(C(=O)OC(C)(C)C)C1C(=O)OC(C)(C)C", "note": "(repeat unit)", "glass transition temperature": 83.40}
{"smiles": "*CC(*)(C)C(=O)Oc1ccc(C#N)cc1", "note": "(repeat unit)", "glass transition temperature": 155.00}
{"smiles": "*C(=O)Nc1ccc(NC(=O)c2ccc3c(c2)C(=O)N(c2ccc(S(=O)(=O)c4ccc(N5C(=O)c6ccc(*)cc6C5=O)cc4)cc2)C3=O)cc1", "note": "(repeat unit)", "glass transition temperature": 368.00}
{"smiles": "*/C=C/CCCCCCCCCC(CCCCCCCCC*)COCCOCCOCCOCCOCCCCCC", "note": "(repeat unit)", "glass transition temperature": -76.00}
{"smiles": "*c1ccc(Oc2ccc(N3C(=O)CC(C4C=C(C)C5C(=O)N(*)C(=O)C5C4)C3=O)cc2)cc1", "note": "(repeat unit)", "glass transition temperature": 278.00}
{"smiles": "*c1ccc(Cc2ccc(N3C(=O)CC(Nc4ccc(N(c5ccc(Nc6ccc([N+](=O)[O-])cc6)cc5)c5ccc(NC6CC(=O)N(*)C6=O)cc5)cc4)C3=O)cc2)cc1", "note": "(repeat unit)", "glass transition temperature": 324.00}
{"smiles": "*Oc1ccc(C(c2ccc(OC(=O)c3ccc(C(c4ccc(C(*)=O)cc4)(C(F)(F)F)C(F)(F)F)cc3)cc2)(C(F)(F)F)C(F)(F)F)cc1", "note": "(repeat unit)", "glass transition temperature": 135.00}
{"smiles": "*c1ccc2oc(-c3ccc(Oc4ccc(-c5nc6cc(C(*)(C(F)(F)F)C(F)(F)F)ccc6o5)cc4)cc3)nc2c1", "note": "(repeat unit)", "glass transition temperature": 303.00}
{"smiles": "*CCCCCCN(C)C(=O)CCCC(=O)N(*)C", "note": "(repeat unit)", "glass transition temperature": 3.00}
{"smiles": "*Nc1ccc(Cc2ccc(NC(=O)NCCCCCCCCCCNC(*)=O)cc2)cc1", "note": "(repeat unit)", "glass transition temperature": 46.00}
{"smiles": "*Oc1ccc(C(c2ccccc2)(c2ccccc2)c2ccc(OC(=O)c3cccc(C(*)=O)c3)cc2)cc1", "note": "(repeat unit)", "glass transition temperature": 229.00}
{"smiles": "*CC(CO*)(CS(=O)(=O)CCCCC)CS(=O)(=O)CCCCC", "note": "(repeat unit)", "glass transition temperature": 56.00}
{"smiles": "*Oc1ccc(S(=O)(=O)c2ccc(Oc3c(C)cc(C(c4cc(C)c(*)c(C)c4)(C(F)(F)F)C(F)(F)F)cc3C)cc2[Si](C)(C)C)c([Si](C)(C)C)c1", "note": "(repeat unit)", "glass transition temperature": 197.00}
{"smiles": "*Oc1cc(C(C)(C)C)c(Oc2ccc(C(=O)Nc3ccc(C(C)(C)c4ccc(NC(=O)c5ccc(*)cc5)c(C)c4)cc3C)cc2)cc1C(C)(C)C", "note": "(repeat unit)", "glass transition temperature": 275.00}
{"smiles": "*c1cc(*)cc(-c2nc3ccccc3o2)c1", "note": "(repeat unit)", "glass transition temperature": 250.00}
{"smiles": "*O[Si](*)(CC)CC", "note": "(repeat unit)", "glass transition temperature": -139.00}
{"smiles": "*C1C(=O)N(c2ccccc2C(=O)OCC)C(=O)C1*", "note": "(repeat unit)", "glass transition temperature": 230.00}
{"smiles": "*CCCCCCCCCCCCOC(=O)NCCCCCCCCCCNC(=O)O*", "note": "(repeat unit)", "glass transition temperature": 34.00}
{"smiles": "*CCCCN1C(=O)C2C3C=CC(C4C(=O)N(*)C(=O)C34)C2C1=O", "note": "(repeat unit)", "glass transition temperature": 211.00}
{"smiles": "*Oc1ccc(C(CCC)c2ccc(OC(*)=O)cc2)cc1", "note": "(repeat unit) [Poly[1,1-butane bis(4-phenyl)carbonate] ]", "glass transition temperature": "123 ± 0.6"}
{"smiles": "*C(=O)Nc1ccc(S(=O)(=O)c2ccc(NC(=O)c3ccc4c(c3)C(=O)N(c3cccc(N5C(=O)c6ccc(*)cc6C5=O)c3)C4=O)cc2)cc1", "note": "(repeat unit)", "glass transition temperature": 342.00}
{"smiles": "*CC(*)(C)C(=O)OCC1COCCOCCOCCO1", "note": "(repeat unit)", "glass transition temperature": 35.00}
{"smiles": "*CC(*)c1ccccc1C(=O)OCCCC", "note": "(repeat unit)", "glass transition temperature": 66.00}
{"smiles": "*Nc1cccc(NC(=O)c2cc(NC(=O)C34CC5CC(CC(C5)C3)C4)cc(C(*)=O)c2)c1", "note": "(repeat unit)", "glass transition temperature": 365.00}
{"smiles": "*C(F)(F)C(*)(OC(F)(F)F)OC(F)(F)F", "note": "(repeat unit)", "glass transition temperature": -60.00}
{"smiles": "*CC(*)c1cc(C(C)(C)C)ccc1C", "note": "(repeat unit)", "glass transition temperature": 87.00}
{"smiles": "*O[Si](C)(C)COC(=O)CCCCCCCCC(=O)Oc1ccc(S(=O)(=O)c2ccc(Oc3ccc(/C=C4\\CCCC/C(=C\\c5ccc(Oc6ccc(S(=O)(=O)c7ccc(OC(=O)CCCCCCCCC(=O)OC[Si](*)(C)C)cc7)cc6)cc5)C4=O)cc3)cc2)cc1", "note": "(repeat unit)", "glass transition temperature": 81.00}
{"smiles": "*c1ccc(N2C(=O)c3ccc(-c4ccc5c(c4)C(=O)N(c4ccc6[nH]c(*)nc6c4)C5=O)cc3C2=O)cc1", "note": "(repeat unit)", "glass transition temperature": 397.50}
